Assay results from US10022345B2, “Agent for preventing and/or treating veisalgia” (SBI Pharmaceuticals Co., Ltd., priority 2011, dated 2018).
Where “and” joins values, the source holds several entries; their conditions need not be identical. Equal values may be shown once. Entries after “also recorded” stand apart in the source; their conditions may differ.

Legend:
[1] = Example 8: case of hangover therapy, test subject A, capsule of aminolevulinic acid; type: in vivo, human; details: terrible hangover, one capsule comprising 100 mg
Method: Test subject A who consumed Japanese sake similarly to Example 7 without ingesting any capsules developed a terrible hangover condition. Test subject A ingested one capsule comprising 100 mg of aminolevulinic acid. As a result, symptoms started to recover after 30 minutes had passed since administration, and they had completely recovered after 1.5 hours.

[2] = Example 9: questionnaire total score of ten hangover symptoms with and without ALAs ingestion, fifteen test subjects; type: in vivo, human; details: for Total score After alcohol consumption (same day) / Total score Morning after alcohol consumption: ALAs ingested (10-150 mg total, differs per subject), sum of ten hangover symptom items each scored 0-4, one line per test subject 1-15
Method: The following tests were performed to more quantitatively measure that ALAs are effective for the prevention or therapy of a hangover.
In this experiment, aminolevulinic acid phosphate salt was employed as ALAs.
Each test subject, consumed alcohol in the evening for a total of two times in order to evaluate hangover symptoms in regards to each of (1) when ALAs was ingested and (2) when ALAs was not ingested. In the experiment with ALAs ingestion and the experiment without ALAs ingestion, the order for which of the experiments was performed first and the other of the experiments was performed, later was randomly selected for each test subject. Each experiment was performed with at least a few days apart.
Total amount of alcohol consumption varies by test subject. This is because a moderate amount for each test subject was consumed. Moreover, alcohol consumption was made so that the total amount of the second alcohol consumption was the same as the total amount of the first alcohol consumption (note that as exceptions, (1) the total amount of alcohol consumption when ALAs was ingested and (2) the total amount of alcohol consumption when ALAs was not ingested are not the same for test subjects 1, 2, and 12 in Table 5 below). In Table 5 below, the “total amount of alcohol consumption” indicates a value converted into the total amount of alcohol contained in beer or Japanese sake etc. consumed (in other words, in the case of a 500 ml canned beer, if the alcohol percentage is 5%, it is calculated as […]).
Moreover, for each test subject, the timing of ALAs ingestion (1) when ALAs was ingested was “at the start of alcohol consumption” and/or “after the end of alcohol consumption” as shown in Table 5 below. The ingestion of ALAs (aminolevulinic acid phosphate salt) was performed by selecting at least one from below:
(A) the capsule of Example 1 (contains 50 mg of ALAs),
(B) the capsule of Example 3 (contains 10 mg of ALAs),
(C) “Hanamitsu Drink™” (contains 5 or 10 mg of ALAs, a product generally marketed by the present applicants) for each test subject, ingested in the range of 10 mg-150 mg total.
(A) The body condition “after alcohol consumption on the day of alcohol consumption” (“after alcohol consumption (same day)” in Table 5) and (B) the body condition on “the morning after the day of alcohol consumption” (“morning after alcohol consumption” in Table 5) were quantified with the following scores. In other words, a five-step evaluation (0: no indication, 1: mild, 2: moderate, 3: severe, and 4: profound) was performed for each test subject in regards to the following ten items (a-j) which are hangover symptoms. Then, evaluation values (0-4) for each item were summed for each test subject. The results are described in Table 5 as the “total score” showing hangover symptoms.

[3] = phosphate salt, 10 mg ALAs with 60 mL alcohol
[4] = phosphate salt, 20 mg ALAs with 70 mL alcohol
[5] = phosphate salt, 50 mg ALAs with 14 mL alcohol
[6] = phosphate salt, 50 mg ALAs with 25 mL alcohol
[7] = phosphate salt, 50 mg ALAs with 45 mL alcohol
[8] = phosphate salt, 50 mg ALAs with 79 mL alcohol
[9] = phosphate salt, 50 mg ALAs with 108 mL alcohol
[10] = phosphate salt, 100 mg ALAs with 50 mL alcohol
[11] = phosphate salt, 100 mg ALAs with 75 mL alcohol
[12] = phosphate salt, 100 mg ALAs with 190 mL alcohol
[13] = phosphate salt, 150 mg ALAs with 129 mL alcohol

## NCC(=O)CCC(=O)O [aminolevulinic acid, 5-aminolevulinic acid]
[1]
  time after administration until hangover symptoms started to recover: 30 min
  time until complete recovery from hangover: 1.5 h

## aminolevulinic acid phosphate salt [ALAs]
[2]; [3]
  Total score After alcohol consumption (same day): 9
  Total score Morning after alcohol consumption: 2
[2]; [4]
  Total score After alcohol consumption (same day): 1
  Total score Morning after alcohol consumption: 1
[2]; [5]
  Total score After alcohol consumption (same day): 0
  Total score Morning after alcohol consumption: 0
[2]; [6]
  Total score After alcohol consumption (same day): 0 (2×) and 3
  Total score Morning after alcohol consumption: 0 (2×) and 3
[2]; [7]
  Total score After alcohol consumption (same day): 0
  Total score Morning after alcohol consumption: 0
[2]; [8]
  Total score After alcohol consumption (same day): 0
  Total score Morning after alcohol consumption: 0
[2]; [9]
  Total score After alcohol consumption (same day): 0
  Total score Morning after alcohol consumption: 0
[2]; [10]
  Total score After alcohol consumption (same day): 1
  Total score Morning after alcohol consumption: 1
[2]; [11]
  Total score After alcohol consumption (same day): 0
  Total score Morning after alcohol consumption: 1 and 0 and 2
[2]; [12]
  Total score After alcohol consumption (same day): 9
  Total score Morning after alcohol consumption: 7
[2]; [13]
  Total score After alcohol consumption (same day): 0
  Total score Morning after alcohol consumption: 1
[2]; ALAs ingested at the start of alcohol consumption, test subjects 1 and 2
  amount of alcohol consumption possible: Alcohol consumption at an amount more than usual was possible
[2]; subgroups of test subjects, phosphate salt
  hangover symptoms with ALAs ingestion compared to without, conclusions from Table 5: hangover symptoms were surprisingly mostly reduced; also recorded: Hangover symptoms were generally improved and a prophylactic effect of hangovers was seen; also recorded: no hangover symptoms manifested
